Test results taken from patent US12336981B2, “Compounds and compositions for the inhibition of NAMPT” (Valo Health, Inc., priority 2010, dated 2025).
Read-outs that look alike come from different tables or passages of the source.

Experiments:
A2780 cells = test: In-vitro cell proliferation assay (SRB), A2780 cells; assay type: cell-based; details: Homo sapiens, A2780, 72 h, A2780 cells, 72 hours, read-out: A2780 IC50
How it was run: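 Cells were plated overnight at 37° C., 5% CO2, then exposed to serially diluted compounds (0.1% DMSO final) for 72 hours. Viable cells were measured by sulforhodamine B staining after TCA fixation, read at 570 nm; media-only background was subtracted before % inhibition was calculated.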

NAMPT = molecular target: T1, NAMPT (Homo sapiens, UniProt P43490); test: Biochemical inhibition assay: NAMPT enzymatic reaction, NMN quantified by mass spectrometry; details: read-out: Biochem IC50
T1 construct: His tag; host or cells: E. coli
How it was run: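 Inhibition of E. coli-expressed His-tagged human NAMPT, measured as NMN formation by mass spectrometry after a 30 min room-temperature reaction containing 1 μM NAM, 100 μM PRPP and 2.5 mM ATP.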

T1 sequence (P43490 whole entry): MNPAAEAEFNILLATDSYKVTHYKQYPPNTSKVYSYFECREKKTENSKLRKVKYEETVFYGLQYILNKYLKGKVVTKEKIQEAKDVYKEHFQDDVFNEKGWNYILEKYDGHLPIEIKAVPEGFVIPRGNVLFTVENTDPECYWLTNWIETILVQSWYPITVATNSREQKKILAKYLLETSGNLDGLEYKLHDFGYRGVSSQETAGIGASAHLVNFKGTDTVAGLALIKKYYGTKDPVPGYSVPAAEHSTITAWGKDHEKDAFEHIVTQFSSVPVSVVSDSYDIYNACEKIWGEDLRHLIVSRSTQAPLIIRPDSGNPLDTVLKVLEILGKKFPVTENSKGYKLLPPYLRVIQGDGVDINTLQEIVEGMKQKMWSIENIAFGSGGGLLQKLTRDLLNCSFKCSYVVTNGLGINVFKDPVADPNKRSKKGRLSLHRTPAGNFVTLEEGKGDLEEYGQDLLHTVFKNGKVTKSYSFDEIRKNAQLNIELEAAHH

SMILES | IC50 (A2780 cells; SRB) [nM] | IC50 (NAMPT; NAMPT enzymatic assay) [nM] | IC50 (NAMPT; NAMPT enzymatic reaction) [nM] | IC50 (A2780 cells; SRB assay) [nM]
Cn1cc(S(=O)(=O)c2ccc(CNC(=O)c3cc4ccncc4o3)cc2)cn1 [N-{[4-(1-methyl-1H-pyrazole-4-sulfonyl)phenyl]methyl}furo[2,3-c]pyridine-2-carboxamide] | 65.4 | 16.8 |  | 
CC(C)NC(=O)c1cccc(S(=O)(=O)c2ccc(CNC(=O)c3cnc4nccn4c3)cc2)c1 | 65.8 | 7 |  | 
Cc1ccccc1S(=O)(=O)c1ccc(CNC(=O)c2cc3ccncc3o2)cc1 [N-({4-[(2-methylbenzene)sulfonyl]phenyl}methyl)furo[2,3-c]pyridine-2-carboxamide] | 43.3 |  | 15.2 | 
O=C(NCc1ccc(S(=O)(=O)c2cccc(OCCN3CCOCC3)c2)cc1)c1cnc2nccn2c1 | 24.7 | 3.1 |  | 
COc1cc(C)cc(OC)c1S(=O)(=O)c1ccc(CNC(=O)c2cc3ccncc3o2)cc1 [N-({4-[(2,6-dimethoxy-4-methylbenzene)sulfonyl]phenyl}methyl)furo[2,3-c]pyridine-2-carboxamide] | 23 |  | 5 | 
Cc1cc(S(=O)(=O)c2ccc(CNC(=O)c3cnc4[nH]ncc4c3)cc2)ccc1F | 8.3 |  | 5 | 
N#CC1(c2ccc(S(=O)(=O)c3ccc(CNC(=O)c4cc5ccncc5o4)cc3)cc2)CCCC1 | 6 | 8 |  | 
CNS(=O)(=O)c1ccccc1S(=O)(=O)c1ccc(CNC(=O)c2cc3ccncc3o2)cc1 | 74 | 51.3 |  | 
COc1cccc(C)c1NS(=O)(=O)c1ccc(CNC(=O)c2cc3cnccc3[nH]2)cc1 [N-({4-[(2-methoxy-6-methylphenyl)sulfamoyl]phenyl}methyl)-1H-pyrrolo[3,2-c]pyridine-2-carboxamide] |  |  | 6 | 12400
Cc1cc(Cl)ccc1S(=O)(=O)c1ccc(CNC(=O)c2cc3ccncc3o2)cc1 [N-({4-[(4-chloro-2-methylbenzene)sulfonyl]phenyl}methyl)furo[2,3-c]pyridine-2-carboxamide] | 64.7 |  | 24.9 | 
CC(C)CNC(=O)c1cccc(S(=O)(=O)c2ccc(CNC(=O)c3cc4cnccc4[nH]3)cc2)c1 | 45.8 | 19.3 |  | 
O=C(NCc1ccc(S(=O)(=O)c2ccc(OC(F)(F)F)cc2)cc1)c1cnc2[nH]ncc2c1 | 22.3 | 34.6 |  | 
COc1c(C)cc(S(=O)(=O)c2ccc(CNC(=O)c3cc4cnccc4[nH]3)cc2)cc1C | 1.7 |  | 51.6 | 
COc1ccc(S(=O)(=O)c2ccc(CNC(=O)c3cnc4[nH]ncc4c3)cc2)cc1OC | 5.6 |  | 20.6 | 
O=C(NCc1ccc(S(=O)(=O)c2cccc(Cl)c2F)cc1)c1cnc2nccn2c1 | 17.6 |  | 2.4 | 
Cn1ncc2cccc(S(=O)(=O)c3ccc(CNC(=O)c4cnc5nccn5c4)cc3)c21 [N-{[4-(1-methyl-1H-indazole-7-sulfonyl)phenyl]methyl}imidazo[1,2-a]pyrimidine-6-carboxamide] | 100 to 1000 | 23.3 |  | 
O=C(NCc1ccc(S(=O)(=O)c2cc(C(F)(F)F)ccc2OCc2ccccc2)cc1)c1cnc2nccn2c1 | 100 to 1000 | 33.2 |  | 
O=C(NCc1ccc(S(=O)(=O)c2cccnc2)cc1)c1cnc2nccn2c1 [N-{[4-(pyridine-3-sulfonyl)phenyl]methyl}imidazo[1,2-a]pyrimidine-6-carboxamide] | 100 to 1000 | 5.9 |  | 
CC(C)Oc1cc(F)ccc1S(=O)(=O)c1ccc(CNC(=O)c2cnc3nccn3c2)cc1 [N-[(4-{[4-fluoro-2-(propan-2-yloxy)benzene]sulfonyl}phenyl)methyl]imidazo[1,2-a]pyrimidine-6-carboxamide] | 15 | 3.5 |  | 
CCCOc1ccc(S(=O)(=O)c2ccc(CNC(=O)c3cnc4[nH]ncc4c3)cc2)c(C)c1 | 79.4 |  | 64.4 | 
CCCCOc1ccc(Cl)cc1S(=O)(=O)c1ccc(CNC(=O)c2cnc3nccn3c2)cc1 | 62.8 |  | 3.7 | 
O=C(NCc1ccc(S(=O)(=O)c2cnn(-c3ccc(F)cc3)c2)cc1)c1cc2ccncc2s1 [N-({4-[1-(4-fluorophenyl)-1H-pyrazole-4-sulfonyl]phenyl}methyl)thieno[2,3-c]pyridine-2-carboxamide] | 6.2 | 4.5 |  | 
Cc1ccc(S(=O)(=O)c2ccc(CNC(=O)c3cc4cnccc4[nH]3)cc2)cc1Cl | 2.5 |  | 8.3 | 
CCCCOc1cc(F)ccc1S(=O)(=O)c1ccc(CNC(=O)c2cc3ccncc3o2)cc1 | 66.5 |  | 33.5 | 
Cn1ncc2c(S(=O)(=O)c3ccc(CNC(=O)c4cc5cc(O)ccc5[nH]4)cc3)cccc21 [5-hydroxy-N-{[4-(1-methyl-1H-indazole-4-sulfonyl)phenyl]methyl}-1H-indole-2-carboxamide] | > 1000 |  | 100 to 1000 | 

SMILES | IC50 (A2780 cells; SRB) [nM] | IC50 (NAMPT; NAMPT enzymatic assay) [nM] | IC50 (NAMPT; NAMPT enzymatic reaction) [nM] | IC50 (A2780 cells; SRB assay) [nM]
O=C(NCc1ccc(S(=O)(=O)c2ccc(-n3cccn3)c(F)c2)cc1)c1cc2ccncc2o1 | 5 | 17.3 |  | 
O=C(NCc1ccc(S(=O)(=O)c2cc(C(F)(F)F)ccc2OCc2ccccc2)cc1)c1cc2cnccc2[nH]1 | 25.9 | 130 |  | 
O=C(NCc1ccc(S(=O)(=O)Nc2ccccc2N2CCOCC2)cc1)c1cc2cnccc2[nH]1 [N-[(4-{[2-(morpholin-4-yl)phenyl]sulfamoyl}phenyl)methyl]-1H-pyrrolo[3,2-c]pyridine-2-carboxamide] |  |  | 19 | 17
O=C(NCc1ccc(S(=O)(=O)c2cncc3ccccc23)cc1)c1cc2ccncc2s1 [N-{[4-(isoquinoline-4-sulfonyl)phenyl]methyl}thieno[2,3-c]pyridine-2-carboxamide] | 0.8 | 6.7 | 3 | 0.7
O=C(NCc1ccc(S(=O)(=O)c2ccccc2)cc1)c1ccc2ncncc2c1 [N-{[4-(benzenesulfonyl)phenyl]methyl}quinazoline-6-carboxamide] |  |  | 16100 | 21300
O=C(NCc1ccc(S(=O)(=O)c2cccc(C(=O)NC3CCCC3)c2)cc1)c1ccc2nccn2c1 | 16.2 | 10.3 |  | 
O=C(NCc1ccc(S(=O)(=O)Cc2ccccc2)cc1)c1cc2cnccc2[nH]1 [N-{[4-(phenylmethane)sulfonylphenyl]methyl}-1H-pyrrolo[3,2-c]pyridine-2-carboxamide] |  |  | 29 | 302
Cc1c(Cl)cccc1S(=O)(=O)c1ccc(CNC(=O)c2cc3ccncc3o2)cc1 | 1.6 |  | 2.6 | 
O=C(NCc1ccc(S(=O)(=O)c2ccc(F)c(F)c2)cc1)c1cc2ccncc2s1 [N-({4-[(3,4-difluorobenzene)sulfonyl]phenyl}methyl)thieno[2,3-c]pyridine-2-carboxamide] |  |  | 9 | 8.1
O=C(NCc1ccc2ncsc2c1)c1ccc(S(=O)(=O)c2cccc(Cl)c2)cc1 [N-(1,3-benzothiazol-6-ylmethyl)-4-[(3-chlorobenzene)sulfonyl]benzamide] | > 10000 | 10 |  | 
COCc1cccc(S(=O)(=O)c2ccc(CNC(=O)c3ccc4nccn4c3)cc2)c1 | 6.8 | 6.7 |  | 
CCOc1ccccc1S(=O)(=O)c1ccc(CNC(=O)c2cc3ccncc3o2)cc1 [N-({4-[(2-ethoxybenzene)sulfonyl]phenyl}methyl)furo[2,3-c]pyridine-2-carboxamide] | 6 |  | 65.9 | 
COc1cc(Cl)cc(S(=O)(=O)c2ccc(CNC(=O)c3cnc4[nH]ncc4c3)cc2)c1 | 2.5 |  | 9.3 | 
Cc1nc(-c2cccc(S(=O)(=O)c3ccc(CNC(=O)c4cc5ccncc5s4)cc3)c2)no1 | 1 | 3.3 |  | 
O=C(NCc1ccc(S(=O)(=O)Nc2ccccc2CO)cc1)c1cc2cnccc2[nH]1 [N-[(4-{[2-(hydroxymethyl)phenyl]sulfamoyl}phenyl)methyl]-1H-pyrrolo[3,2-c]pyridine-2-carboxamide] |  |  | 30 | 6
O=C(NCc1ccc(S(=O)(=O)c2cccc(N3CCCC3)c2)cc1)c1cc2ccncc2s1 | 2.5 | 1.9 |  | 
CSc1ccc(S(=O)(=O)c2ccc(CNC(=O)c3ccc4nccn4c3)cc2)cc1F | 2.7 | 5.6 |  | 
O=C(NCc1ccc(S(=O)(=O)c2cccc3c2OCO3)cc1)c1cc2ccncc2o1 [N-{[4-(2H-1,3-benzodioxole-4-sulfonyl)phenyl]methyl}furo[2,3-c]pyridine-2-carboxamide] | 26.6 | 25.8 |  | 
CCCCc1ccc(S(=O)(=O)c2ccc(CNC(=O)c3ccc4nccn4c3)cc2)cc1 | 7.6 |  | 5.7 | 
O=C(NCc1ccc(S(=O)(=O)CCc2ccccc2)cc1)C1=Nc2ccncc2C1 [N-({4-[(2-phenylethane)sulfonyl]phenyl}methyl)-1H-pyrrolo[3,2-c]pyridine-2-carboxamide] |  |  | 11 | 22
O=C(NCc1ccc(S(=O)(=O)c2ccc(OCC(F)(F)F)c(F)c2)cc1)c1cnc2[nH]ncc2c1 [N-[(4-{[3-fluoro-4-(2,2,2-trifluoroethoxy)benzene]sulfonyl}phenyl)methyl]-1H-pyrazolo[3,4-b]pyridine-5-carboxamide] | 22.3 | 10.3 |  | 
COc1ccc(S(=O)(=O)c2ccc(CNC(=O)c3cc4cnccc4[nH]3)cc2)cc1OC [N-({4-[(3,4-dimethoxybenzene)sulfonyl]phenyl}methyl)-1H-pyrrolo[3,2-c]pyridine-2-carboxamide] |  |  | 14 | 3
O=C(NC1CCCC1)c1cccc(S(=O)(=O)c2ccc(CNC(=O)c3cc4ccncc4s3)cc2)c1 | 13.8 | 4.8 |  | 
COc1cc(S(=O)(=O)c2ccc(CNC(=O)c3cc4ccncc4s3)cc2)ccc1C | 1.5 |  | 2.7 | 
COc1ccc(OC)c(S(=O)(=O)c2ccc(CNC(=O)c3cc4ccncc4o3)cc2)c1 | 6.3 |  | 11.4 | 
